Test [1] addresses T1, Glucocorticoid receptor (Homo sapiens, UniProt P04150).
T1 sequence (P04150 whole entry): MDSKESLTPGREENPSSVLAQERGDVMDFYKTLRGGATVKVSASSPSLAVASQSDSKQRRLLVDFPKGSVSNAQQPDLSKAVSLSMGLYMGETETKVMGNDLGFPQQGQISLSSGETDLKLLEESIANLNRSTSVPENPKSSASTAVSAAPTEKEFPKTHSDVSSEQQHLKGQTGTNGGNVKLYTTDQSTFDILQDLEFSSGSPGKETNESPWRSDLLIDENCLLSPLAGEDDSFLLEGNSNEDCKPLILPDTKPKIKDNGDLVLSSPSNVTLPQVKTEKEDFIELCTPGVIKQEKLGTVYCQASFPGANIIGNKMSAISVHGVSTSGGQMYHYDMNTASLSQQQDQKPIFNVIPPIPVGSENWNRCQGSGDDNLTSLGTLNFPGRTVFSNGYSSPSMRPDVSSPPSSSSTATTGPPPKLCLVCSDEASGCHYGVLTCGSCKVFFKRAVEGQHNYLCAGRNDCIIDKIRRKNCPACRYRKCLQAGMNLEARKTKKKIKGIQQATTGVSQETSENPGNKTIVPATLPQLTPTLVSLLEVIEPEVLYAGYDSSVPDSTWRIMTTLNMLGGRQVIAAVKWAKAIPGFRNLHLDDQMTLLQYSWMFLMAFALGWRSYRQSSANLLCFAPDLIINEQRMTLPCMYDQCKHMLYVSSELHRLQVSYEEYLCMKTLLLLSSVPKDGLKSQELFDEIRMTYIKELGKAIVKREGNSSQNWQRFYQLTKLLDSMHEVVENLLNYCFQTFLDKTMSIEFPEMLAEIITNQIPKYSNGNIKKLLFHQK
In words: Displacement of fluorescent-labeled Dexamethasone from GR by fluorescent polarization assay.

The target in the next test is T2, Androgen receptor (Homo sapiens, UniProt P10275).
T2 sequence (P10275 whole entry): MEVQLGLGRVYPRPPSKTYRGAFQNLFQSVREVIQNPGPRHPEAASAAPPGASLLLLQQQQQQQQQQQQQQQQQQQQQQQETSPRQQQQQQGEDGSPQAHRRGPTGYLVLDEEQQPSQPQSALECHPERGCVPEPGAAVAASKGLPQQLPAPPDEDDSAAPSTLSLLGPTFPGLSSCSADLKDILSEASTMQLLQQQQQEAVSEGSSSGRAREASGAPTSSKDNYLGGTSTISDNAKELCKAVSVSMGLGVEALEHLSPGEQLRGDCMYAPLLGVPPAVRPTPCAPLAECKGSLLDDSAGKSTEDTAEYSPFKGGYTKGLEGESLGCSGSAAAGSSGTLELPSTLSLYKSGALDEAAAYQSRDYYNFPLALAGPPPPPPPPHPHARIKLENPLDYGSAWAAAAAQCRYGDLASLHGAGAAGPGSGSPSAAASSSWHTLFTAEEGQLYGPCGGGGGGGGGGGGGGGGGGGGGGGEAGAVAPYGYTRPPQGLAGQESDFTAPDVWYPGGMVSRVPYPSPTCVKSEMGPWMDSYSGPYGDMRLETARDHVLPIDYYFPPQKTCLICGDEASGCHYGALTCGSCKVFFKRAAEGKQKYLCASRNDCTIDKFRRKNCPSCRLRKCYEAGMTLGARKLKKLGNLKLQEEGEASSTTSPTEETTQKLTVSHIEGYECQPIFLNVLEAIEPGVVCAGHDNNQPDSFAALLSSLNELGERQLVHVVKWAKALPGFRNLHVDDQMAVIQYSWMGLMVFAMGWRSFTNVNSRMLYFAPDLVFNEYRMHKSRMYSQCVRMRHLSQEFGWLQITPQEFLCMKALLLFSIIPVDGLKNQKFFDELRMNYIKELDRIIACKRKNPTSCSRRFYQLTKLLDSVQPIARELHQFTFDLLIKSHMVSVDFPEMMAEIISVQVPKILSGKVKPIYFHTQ

In the next test the target is T3, Progesterone receptor (Homo sapiens, UniProt P06401).
T3 sequence (P06401 whole entry): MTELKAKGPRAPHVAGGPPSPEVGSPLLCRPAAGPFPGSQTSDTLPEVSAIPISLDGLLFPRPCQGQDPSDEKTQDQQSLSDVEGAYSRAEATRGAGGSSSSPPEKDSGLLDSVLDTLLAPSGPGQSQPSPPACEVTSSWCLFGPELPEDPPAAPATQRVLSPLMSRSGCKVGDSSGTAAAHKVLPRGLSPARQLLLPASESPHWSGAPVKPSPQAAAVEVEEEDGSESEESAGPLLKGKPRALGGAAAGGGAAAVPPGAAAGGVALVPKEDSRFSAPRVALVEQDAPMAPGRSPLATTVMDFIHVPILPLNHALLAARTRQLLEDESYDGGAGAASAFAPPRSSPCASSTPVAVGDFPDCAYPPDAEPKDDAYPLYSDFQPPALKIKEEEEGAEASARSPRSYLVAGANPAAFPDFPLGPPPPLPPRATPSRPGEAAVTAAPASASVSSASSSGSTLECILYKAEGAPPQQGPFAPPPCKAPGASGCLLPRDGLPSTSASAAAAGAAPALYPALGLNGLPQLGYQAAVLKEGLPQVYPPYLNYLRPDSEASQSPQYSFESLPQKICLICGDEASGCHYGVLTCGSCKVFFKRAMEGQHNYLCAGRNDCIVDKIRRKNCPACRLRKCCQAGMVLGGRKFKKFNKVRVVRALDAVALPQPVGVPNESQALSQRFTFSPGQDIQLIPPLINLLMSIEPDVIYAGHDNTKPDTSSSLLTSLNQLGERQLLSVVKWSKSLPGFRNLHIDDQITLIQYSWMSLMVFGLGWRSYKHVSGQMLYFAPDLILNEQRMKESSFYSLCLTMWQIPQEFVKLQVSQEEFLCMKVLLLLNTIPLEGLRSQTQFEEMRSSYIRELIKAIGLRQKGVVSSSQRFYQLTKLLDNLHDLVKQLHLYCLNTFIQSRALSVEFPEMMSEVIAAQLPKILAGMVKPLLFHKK
In words: Binding affinity to PR.

Test [2] deals with T1, Glucocorticoid receptor. As to the kind of experiment: Agonist activity at GR in human A549 cells transfected with luciferase gene linked to MMTV promoter assessed as luciferase transactivation activity after 24 hrs. Format: functional, cell-based.
The target in test [3] is T1, Glucocorticoid receptor. In words: Activity at GR in human A549 cells by NF-kappaB transrepression assay. In kind it is cell-based.
Test [4] addresses T1, Glucocorticoid receptor. In words: Antagonist activity at GR in human A549 cells transfected with luciferase gene linked to MMTV promoter assessed as inhibition of dexamethasone-induced luciferase transactivation activity after 24 hrs. Format: functional, cell-based.

Results on 18 compounds are retold here after ChEMBL document CHEMBL1155531, “Structure guided design of 5-arylindazole glucocorticoid receptor agonists and antagonists” (J Med Chem, 2010).

The IC50 is the point on the concentration scale where inhibition reaches its midpoint. The term EC50 denotes the midpoint of the concentration-response curve.

Where only a bound is given, the exact number is not on record here.

On to `O=S(=O)(Nc1ccc(-c2ccc3c(cnn3-c3ccc(F)cc3)c2)c(C(F)(F)F)c1)c1ccsc1`, for which the 50% inhibitory concentration (IC50) at Glucocorticoid receptor [1] was 0.0126 µM; against Androgen receptor, 2.51 µM; at Progesterone receptor, over 10 µM; at Glucocorticoid receptor [3], 0.1 µM. The EC50 on Glucocorticoid receptor [2] was 0.251 µM.

On to `O=S(=O)(Nc1ccccc1)c1ccc(-c2ccc3c(cnn3-c3ccc(F)cc3)c2)c(C(F)(F)F)c1`, for which the half-maximal inhibitory concentration (IC50) was 0.0251 µM on Glucocorticoid receptor [1]; over 10 µM on Androgen receptor; over 10 µM on Progesterone receptor; 3.16 µM at Glucocorticoid receptor [4]; over 10 µM against Glucocorticoid receptor [3].

On to `CN(c1ccccc1)S(=O)(=O)c1ccc(-c2ccc3c(cnn3-c3ccc(F)cc3)c2)c(C(F)(F)F)c1`, for which the IC50 at Glucocorticoid receptor [1] is 0.0126 µM; against Androgen receptor, over 10 µM; on Progesterone receptor, 0.794 µM; against Glucocorticoid receptor [3], 0.398 µM. In addition, the EC50 on Glucocorticoid receptor [2] is 0.631 µM.

Consider `CC(C)S(=O)(=O)Nc1ccc(-c2ccc3c(cnn3-c3ccc(F)cc3)c2)c(C(F)(F)F)c1`, for which the IC50 at Glucocorticoid receptor [1] was 0.0126 µM; on Androgen receptor it was over 10 µM; at Progesterone receptor it was over 10 µM; against Glucocorticoid receptor [3] it was 0.0501 µM. Besides, the EC50 at Glucocorticoid receptor [2] is 0.158 µM.

With `CC(C)(C)c1ccc(S(=O)(=O)Nc2ccc(-c3ccc4c(cnn4-c4ccc(F)cc4)c3)c(C(F)(F)F)c2)cc1`, the IC50 at Glucocorticoid receptor [1] was 0.0501 µM; against Androgen receptor, over 10 µM; at Progesterone receptor it was over 2.51 µM; at Glucocorticoid receptor [4] it was 10 µM; against Glucocorticoid receptor [3], over 10 µM.

As for `COc1cccc(S(=O)(=O)Nc2ccc(-c3ccc4c(cnn4-c4ccc(F)cc4)c3)c(C(F)(F)F)c2)c1`, the IC50 on Glucocorticoid receptor [1] is 0.0158 µM; on Androgen receptor, 3.16 µM; on Progesterone receptor, over 10 µM; against Glucocorticoid receptor [3], 0.0794 µM. Also, the EC50 at Glucocorticoid receptor [2] is 0.251 µM.

As for `O=S(=O)(Nc1ccc(-c2ccc3c(cnn3-c3ccc(F)cc3)c2)c(C(F)(F)F)c1)c1cccc(C(F)(F)F)c1`, the IC50 is 0.0501 µM on Glucocorticoid receptor [1], 3.98 µM against Androgen receptor, over 10 µM at Progesterone receptor and 0.0631 µM at Glucocorticoid receptor [3]. In addition, on Glucocorticoid receptor [2], the EC50 was 0.2 µM.

`CCCS(=O)(=O)Nc1ccc(-c2ccc3c(cnn3-c3ccc(F)cc3)c2)c(C(F)(F)F)c1`: the IC50 on Glucocorticoid receptor [1] is 0.0158 µM; against Androgen receptor, 3.16 µM; on Progesterone receptor, over 10 µM; on Glucocorticoid receptor [4] it was 2 µM; at Glucocorticoid receptor [3], over 10 µM.

On to `CC(C)c1cc(C(C)C)c(S(=O)(=O)Nc2ccc(-c3ccc4c(cnn4-c4ccc(F)cc4)c3)c(C(F)(F)F)c2)c(C(C)C)c1`, for which the IC50 is 0.251 µM on Glucocorticoid receptor [1]; over 10 µM against Androgen receptor; over 10 µM at Progesterone receptor; over 10 µM on Glucocorticoid receptor [4]; over 10 µM against Glucocorticoid receptor [3].

For `CCCNS(=O)(=O)c1ccc(-c2ccc3c(cnn3-c3ccc(F)cc3)c2)c(C(F)(F)F)c1`, the 50% inhibitory concentration (IC50) on Glucocorticoid receptor [1] is 0.0316 µM; against Androgen receptor, 6.31 µM; on Progesterone receptor it was 0.794 µM; at Glucocorticoid receptor [4], 3.16 µM; against Glucocorticoid receptor [3], over 10 µM.

As to `CC(C)CNS(=O)(=O)c1ccc(-c2ccc3c(cnn3-c3ccc(F)cc3)c2)c(C(F)(F)F)c1`, the IC50 was 0.0398 µM at Glucocorticoid receptor [1]; 6.31 µM against Androgen receptor; 0.631 µM at Progesterone receptor; 3.16 µM at Glucocorticoid receptor [4]; over 10 µM at Glucocorticoid receptor [3].

Take `CCNS(=O)(=O)c1ccc(-c2ccc3c(cnn3-c3ccc(F)cc3)c2)c(C(F)(F)F)c1`: the IC50 at Glucocorticoid receptor [1] is 0.02 µM; on Androgen receptor it was 3.16 µM; at Progesterone receptor, 1.58 µM; at Glucocorticoid receptor [4] it was 2 µM; against Glucocorticoid receptor [3] it was over 10 µM.

`O=S(=O)(Nc1ccc(-c2ccc3c(cnn3-c3ccc(F)cc3)c2)c(C(F)(F)F)c1)c1cccc(OC(F)(F)F)c1`: the IC50 on Glucocorticoid receptor [1] was 0.0398 µM; at Androgen receptor, over 10 µM; on Progesterone receptor, over 10 µM; against Glucocorticoid receptor [3], 0.0794 µM. For the same compound, on Glucocorticoid receptor [2], the EC50 was 0.251 µM.

`O=S(=O)(NCCO)c1ccc(-c2ccc3c(cnn3-c3ccc(F)cc3)c2)c(C(F)(F)F)c1`: the IC50 is 0.0158 µM on Glucocorticoid receptor [1]; 10 µM at Androgen receptor; 5.01 µM at Progesterone receptor; 2 µM on Glucocorticoid receptor [4]; over 10 µM against Glucocorticoid receptor [3].

`CCN(c1ccccc1)S(=O)(=O)c1ccc(-c2ccc3c(cnn3-c3ccc(F)cc3)c2)c(C(F)(F)F)c1`: the half-inhibitory concentration (IC50) was 0.0158 µM at Glucocorticoid receptor [1], over 10 µM against Androgen receptor, over 10 µM on Progesterone receptor and 0.126 µM against Glucocorticoid receptor [3]. Further, the EC50 on Glucocorticoid receptor [2] was 0.2 µM.

For `CCCN(c1ccccc1)S(=O)(=O)c1ccc(-c2ccc3c(cnn3-c3ccc(F)cc3)c2)c(C(F)(F)F)c1`, the IC50 at Glucocorticoid receptor [1] was 0.0158 µM; at Androgen receptor, over 10 µM; at Progesterone receptor, over 10 µM; at Glucocorticoid receptor [3] it was 0.316 µM. On Glucocorticoid receptor [2], the half-maximal effective concentration (EC50) was 0.316 µM.

As for `CC(C)N(c1ccccc1)S(=O)(=O)c1ccc(-c2ccc3c(cnn3-c3ccc(F)cc3)c2)c(C(F)(F)F)c1`, the IC50 at Glucocorticoid receptor [1] is 0.0158 µM; at Androgen receptor it was over 10 µM; at Progesterone receptor it was over 2.51 µM; against Glucocorticoid receptor [3] it was 0.0501 µM. Besides, the EC50 at Glucocorticoid receptor [2] was 0.126 µM.

For `CCCCN(c1ccccc1)S(=O)(=O)c1ccc(-c2ccc3c(cnn3-c3ccc(F)cc3)c2)c(C(F)(F)F)c1`, the half-inhibitory concentration (IC50) on Glucocorticoid receptor [1] is 0.0251 µM; at Androgen receptor it was over 10 µM; at Progesterone receptor, over 10 µM; against Glucocorticoid receptor [3], over 10 µM. Further, the half-maximal effective concentration (EC50) on Glucocorticoid receptor [2] was over 10 µM.
